Results as given in patent US20060217305A1, “Induction of tumor cell senescence by retinoid receptor agonists and antagonists” (Ordway Research Institute, Inc., priority 2005, published 2006).
“And” between values parts separate entries of the source, which are not always exact repeats. Equal entries are not always repeated.

Tested on: MCF-7 cells, human transcripts
Test: Affymetrix U133 2.0 Plus microarray analysis of gene expression
Assay type: cell-based
Description: FIG. 4 depicts microarray analysis of changes in gene expression in MCF-7 cells treated with RAR agonist LGD1550 or RAR antagonist LG100815, plotted using GeneSpring software. The X axis represents different time points of treatment with RAR ligands (0 point correspond to cells cultured for 3 days with DMSO carrier).
To determine the effects of the RAR agonist and antagonist on the expression of essentially all the human genes, MCF-7 cells were treated with 100 nM of RAR agonist LGD1550 or 10 μM of RAR antagonist LG100815, concentrations that provide maximal induction of gene expression according to Q-PCR assays (as discussed above). Cells were treated for 24, 48 or 72 hrs, and total RNA from the untreated or treated cells was isolated using Qiagen's RNeasy Total RNA Isolation Kit. For gene expression profiling, RNA samples were provided to the microarray service facility of the Wadsworth Center Genomics Institute, which carried out biotinylated target preparation and hybridization with Affymetrix U 133 2.0 Plus oligonucleotide microarrays containing 56,000 probe sets representing 48,500 human transcripts. The hybridization signals were normalized using GCRMA procedure and analyzed using GeneSpring software (Silicone Genetics). […] The effects of the agonist and the antagonist also agreed with the results of the earlier analysis of the effects of RA on MCF-7 cells, with all 13 genes previously shown by RT-PCR to be induced in that system (Dokmanovic et al., 2002) also showing induction in the present microarray analysis (FIG. 4b).
RNA or protein products of genes that are induced to a similar level by both the RAR agonist and the RAR antagonist can be used as reporters in screening for compounds with properties similar to LG0100815. RNA or protein products of genes from this group (or promoter constructs for such genes) can be used as reporters in screening for compounds that mimic the effect of retinoids. Table 3, as shown below, lists a set of 508 genes chosen as preferred reporters. These genes were selected by being strongly (at least 2-fold) induced by both the agonist and the antagonist relative to untreated cells and showing no more than two-fold difference between their induction by the agonist and the antagonist. 62 genes listed at the top of Table 3 are particularly preferred reporters, as they are most strongly (at least 4-fold) induced by both the agonist and the antagonist. Table 4, as shown below, lists a set of 53 genes that can be used as preferred markers to discriminate between RARE-dependent and RARE-independent induction of transcription. These genes were chosen by being induced at least 3-fold by the agonist relative to untreated cells and also showing at least 4 times stronger induction by the agonist than by the antagonist. FIG. 6 plots the maximal fold induction of gene expression produced by the agonist versus that produced by the antagonist for the genes listed in Table 3 (particularly preferred reporters only) and in Table 4, with the corresponding trend lines. The relative effects of a tested compound on the genes in Table 3 and Table 4 should indicate whether the compound behaves as a RAR agonist or RAR antagonist. For example, one can select matching pairs of genes from Table 3 and Table 4 that are induced by the agonist to approximately the same degree. A compound that mimics the effects of the agonist should induce such genes to a similar level, whereas a compound that behaves like an antagonist should induce the gene from Table 3 to a much greater degree than the gene from Table 4.

[1] = MCF-7, LGD1550 100 nM, 24, 48 or 72 hrs
[2] = MCF-7, LGD1550 100 nM, 24, 48 or 72 hrs, listed as agonist

Compound: CC(/C=C/C=C(\C)c1cc(C(C)(C)C)cc(C(C)(C)C)c1)=C\C(=O)O [LGD1550]
- Maximal effect, Fold induction (Genbank AI911972, probe 230780_at): 3.89 fold
- Maximal effect, Fold induction (Genbank AW268719, probe 236798_at): 2.03 fold
- Maximal effect, Fold induction (Genbank AW612407, probe 230098_at): 2.32 fold
- Maximal effect, Fold induction (Genbank BF038869, probe 235322_at): 2.13 fold
- Maximal effect, Fold induction (Genbank CA442342, probe 1556097_at): 3.11 fold
- HOXA4 fold induction by the agonist (MCF-7, LGD1550 100 nM): 7.8 fold
- RBP1 fold induction by the agonist (MCF-7, LGD1550 100 nM): 4.4 fold
- number of 40 RARE-containing human genes induced ≧1.5-fold (MCF-7, LGD1550 100 nM): seven
- response of RARE-containing genes induced by both ligands, agonist relative to antagonist (MCF-7, LGD1550 100 nM vs LG100815 10 μM): 3-5 fold stronger
- APXL2 239435_x_at fold induction, maximal effect of agonist [1]: 63.13 fold
- APXL2 241935_at fold induction, maximal effect of agonist [1]: 5.82 fold
- BF593636 228642_at fold induction, maximal effect of agonist [1]: 130.43 fold
- CA448125 1557050_at fold induction, maximal effect of agonist [1]: 8.90 fold
- CA448125 1557051_s_at fold induction, maximal effect of agonist [1]: 23.74 fold
- CEACAM1 206576_s_at fold induction, maximal effect of agonist [1]: 16.23 fold
- CP 228143_at fold induction, maximal effect of agonist [1]: 10.88 fold
- CP 1558034_s_at fold induction, maximal effect of agonist [1]: 44.25 fold
- CYP1A1 205749_at raw signal, maximal effect of agonist [1]: 35.09
- GBP3 223434_at fold induction, maximal effect of agonist [1]: 7.32 fold
- HOXA3 230080_at fold induction, maximal effect of agonist [1]: 10.38 fold
- HPS3 227253_at fold induction, maximal effect of agonist [1]: 21.01 fold
- HSXIAPAF1 228617_at fold induction, maximal effect of agonist [1]: 17.54 fold
- IGFBP3 212143_s_at fold induction, maximal effect of agonist [1]: 16.12 fold
- KRT4 213240_s_at fold induction, maximal effect of agonist [1]: 9.38 fold
- OAS2 204972_at fold induction, maximal effect of agonist [1]: 15.91 fold
- RNASE1 201785_at fold induction, maximal effect of agonist [1]: 49.39 fold
- SLC1A1 213664_at fold induction, maximal effect of agonist [1]: 8.96 fold
- TRIM31 215444_s_at fold induction, maximal effect of agonist [1]: 12.16 fold
- CYP26A1 206424_at fold induction, maximal effect of agonist [2]: 220 fold and 220.23 fold
- HOXA1 214639_s_at fold induction, maximal effect of agonist [2]: 95 fold
- Maximal effect, Fold induction (gene ACVR1B, Genbank NM_020327, probe 208223_s_at): 2.81 fold
- Maximal effect, Fold induction (gene ADFP, Genbank BC005127, probe 209122_at): 2.05 fold
- Maximal effect, Fold induction (gene AKAP13, Genbank AK022014, probe 222024_s_at): 2.03 fold
- Maximal effect, Fold induction (gene AMIGO, Genbank AA001423, probe 226718_at): 2.40 fold
- Maximal effect, Fold induction (gene ARHGAP5, Genbank AK023014, probe 233849_s_at): 2.03 fold
- Maximal effect, Fold induction (gene ARMCX3, Genbank AL121883, probe 222444_at): 2.01 fold
- Maximal effect, Fold induction (gene BHLHB2, Genbank NM_003670, probe 201170_s_at): 3.46 fold
- Maximal effect, Fold induction (gene CASP2, Genbank BC002427, probe 209811_at): 3.72 fold
- Maximal effect, Fold induction (gene CDKL5, Genbank AI611074, probe 227004_at): 3.20 fold
- Maximal effect, Fold induction (gene CHP, Genbank NM_007236, probe 207993_s_at): 2.32 fold
- Maximal effect, Fold induction (gene CRTAP, Genbank AA025858, probe 227138_at): 2.07 fold
- Maximal effect, Fold induction (gene CTMP, Genbank AI184512, probe 229253_at): 2.03 fold
- Maximal effect, Fold induction (gene DKFZp434H2226, Genbank AL137370, probe 232893_at): 2.04 fold
- Maximal effect, Fold induction (gene DKFZp434K2435, Genbank AL136855, probe 223594_at): 2.08 fold
- Maximal effect, Fold induction (gene DNCL2B, Genbank AW959427, probe 238116_at): 2.02 fold
- Maximal effect, Fold induction (gene DSCR1, Genbank NM_004414, probe 208370_s_at): 3.64 fold
- Maximal effect, Fold induction (gene DUSP3, Genbank NM_004090, probe 201538_s_at): 2.94 fold
- Maximal effect, Fold induction (gene DUSP16, Genbank AY038927, probe 1555399_a_at): 2.30 fold
- Maximal effect, Fold induction (gene FLJ10996, Genbank NM_019044, probe 219774_at): 2.02 fold
- Maximal effect, Fold induction (gene FLJ11196, Genbank NM_018357, probe 218651_s_at): 2.24 fold
- Maximal effect, Fold induction (gene FLJ30656, Genbank BF197707, probe 212529_at): 2.09 fold
- Maximal effect, Fold induction (gene FLJ32096, Genbank AK056658, probe 1555870_at): 2.98 fold
- Maximal effect, Fold induction (gene FOXO3A, Genbank N25732, probe 204131_s_at): 2.53 fold
- Maximal effect, Fold induction (gene GALNT7, Genbank BF699855, probe 222587_s_at): 2.51 fold
- Maximal effect, Fold induction (gene GUCY1B2, Genbank NM_004129, probe 220506_at): 2.63 fold
- Maximal effect, Fold induction (gene HIG2, Genbank NM_013332, probe 218507_at): 2.19 fold
- Maximal effect, Fold induction (gene HNRPL, Genbank X16135, probe 35201_at): 2.16 fold
- Maximal effect, Fold induction (gene INPP1, Genbank NM_002194, probe 202794_at): 2.01 fold
- Maximal effect, Fold induction (gene INSIG1, Genbank BG292233, probe 201626_at): 2.04 fold
- Maximal effect, Fold induction (gene JMJD3, Genbank AB002344, probe 41386_i_at): 2.48 fold
- Maximal effect, Fold induction (gene KIAA1219, Genbank BG236163, probe 221738_at): 2.03 fold
- Maximal effect, Fold induction (gene LCP1, Genbank J02923, probe 208885_at): 2.25 fold
- Maximal effect, Fold induction (gene LGALS8, Genbank L78132, probe 208935_s_at): 2.79 fold
- Maximal effect, Fold induction (gene LOC23117, Genbank AL047052, probe 235060_at): 2.00 fold
- Maximal effect, Fold induction (gene LOC55971, Genbank AA496034, probe 227372_s_at): 2.09 fold
- Maximal effect, Fold induction (gene LOC158402, Genbank BE504242, probe 236769_at): 2.00 fold
- Maximal effect, Fold induction (gene LOC284408, Genbank AW467077, probe 235779_at): 2.03 fold
- Maximal effect, Fold induction (gene MAML2, Genbank AI769569, probe 235457_at): 3.92 fold
- Maximal effect, Fold induction (gene MAP3K1, Genbank AA541479, probe 225927_at): 2.05 fold
- Maximal effect, Fold induction (gene MDM4, Genbank NM_002393, probe 205655_at): 2.06 fold
- Maximal effect, Fold induction (gene MGC9850, Genbank BE378670, probe 224857_s_at): 2.58 fold
- Maximal effect, Fold induction (gene MICAL2, Genbank BE965029, probe 212473_s_at): 2.01 fold
- Maximal effect, Fold induction (gene MT1X, Genbank NM_005952, probe 208581_x_at): 3.10 fold
- Maximal effect, Fold induction (gene NEDD9, Genbank AL136139, probe 202149_at): 2.24 fold
- Maximal effect, Fold induction (gene NQO1, Genbank AI039874, probe 201467_s_at): 2.56 fold
- Maximal effect, Fold induction (gene NR3C1, Genbank AI432196, probe 201865_x_at): 2.08 fold
- Maximal effect, Fold induction (gene PARVA, Genbank NM_018222, probe 217890_s_at): 2.17 fold
- Maximal effect, Fold induction (gene PRDM15, Genbank AP001745, probe 225539_at): 2.04 fold
- Maximal effect, Fold induction (gene PRSS23, Genbank NM_007173, probe 202458_at): 2.05 fold
- Maximal effect, Fold induction (gene PSMD7, Genbank AW361702, probe 238738_at): 2.04 fold
- Maximal effect, Fold induction (gene PTK9, Genbank N25562, probe 214008_at): 2.05 fold
- Maximal effect, Fold induction (gene QDPR, Genbank BC000576, probe 209123_at): 2.02 fold
- Maximal effect, Fold induction (gene S100P, Genbank NM_005980, probe 204351_at): 2.33 fold
- Maximal effect, Fold induction (gene SGPL1, Genbank NM_003901, probe 208381_s_at): 2.14 fold
- Maximal effect, Fold induction (gene SLC35D2, Genbank AJ005866, probe 213083_at): 2.73 fold
- Maximal effect, Fold induction (gene SMAD5, Genbank AI439752, probe 235451_at): 2.30 fold
- Maximal effect, Fold induction (gene STYX, Genbank BG390493, probe 244030_at): 2.01 fold
- Maximal effect, Fold induction (gene SUOX, Genbank NM_000456, probe 1553030_a_at): 2.05 fold
- Maximal effect, Fold induction (gene TACSTD2, Genbank J04152, probe 202286_s_at): 2.17 fold
- Maximal effect, Fold induction (gene TEAD2, Genbank AA337048, probe 238323_at): 2.81 fold
- Maximal effect, Fold induction (gene TGFB2, Genbank AU145950, probe 228121_at): 2.04 fold
- Maximal effect, Fold induction (gene TLE3, Genbank AI567426, probe 212769_at): 2.72 fold
- Maximal effect, Fold induction (gene TMEM42, Genbank BF056095, probe 226361_at): 2.47 fold
- Maximal effect, Fold induction (gene TNFAIP2, Genbank NM_006291, probe 202510_s_at): 2.41 fold
- Maximal effect, Fold induction (gene TRIO, Genbank AV718192, probe 209012_at): 2.07 fold
- Maximal effect, Fold induction (gene UROS, Genbank NM_000375, probe 203031_s_at): 2.13 fold
- Maximal effect, Fold induction (gene USP24, Genbank BF444943, probe 212381_at): 2.01 fold
- Maximal effect, Fold induction (gene VHL, Genbank BF972755, probe 1559227_s_at): 2.05 fold
- Maximal effect, Fold induction (gene WIG1, Genbank NM_022470, probe 219628_at): 2.30 fold
- Maximal effect, Fold induction (gene ZNF26, Genbank BC046206, probe 1555325_s_at): 2.03 fold
- Maximal effect, Fold induction (gene ZNF281, Genbank AA121673, probe 228785_at): 2.28 fold
- Maximal effect, Fold induction (gene ZNF286, Genbank BM968434, probe 1557684_at): 2.29 fold
